Values after ≈ are worked out from the molar mass of the structure shown.
How the values were obtained:
Homo sapiens [1] = species: Homo sapiens; assay: Compound was tested for anti HIV-1 activity against MT2/A17 cell/virus strain; type: functional, organism-based
Plasmodium falciparum = assay: In vitro antimalarial activity against Plasmodium falciparum; type: functional, organism-based
CCRF-CEM = assay: Compound was tested for anti HIV-1 activity against CEM-SS/OC100 cell/virus strain; type: functional, cell-based; details: Homo sapiens
[2] = system: Human immunodeficiency virus 1; assay: Compound was tested for inhibition of cytopathic effects against human immunodeficiency virus type 1 (HIV-1); type: functional, organism-based
Homo sapiens [3] = species: Homo sapiens; assay: Compound was tested for anti HIV-1 activity against MT2/G9106 cell/virus strain; type: functional, organism-based

`COc1c2c(cc(O)c1-c1cc(-c3cc(-c4c(O)cc(O)c5c4C[C@@H](C)N[C@@H]5C)c4cc(C)cc(OC)c4c3O)c(O)c3c(OC)cc(C)cc13)C[C@@H](C)N=C2C` gave an EC50 (Homo sapiens [1]) of 10 µM, an IC50 (Plasmodium falciparum) of 1.1 mg/L (≈ 1.43 µM) and an EC50 (CCRF-CEM) of 8 µM. It also gave an EC50 [2] of 2 µM and an EC50 (Homo sapiens [3]) of 6 µM.
